Laboratory results as given in ChEMBL document CHEMBL1155237, “Selective inhibitors of the mutant B-Raf pathway: discovery of a potent and orally bioavailable aminoisoquinoline” (J Med Chem, 2009).

Legend:
[1] = biological target: SRSF protein kinase 2 (Homo sapiens) (UniProt P78362); experiment: Inhibition of SRPK2 assessed as enzyme activity at 1 uM relative to untreated control; design: scale not given: the % may be the effect or the level left
[2] = biological target: Cyclin-dependent kinase 18 (Homo sapiens) (UniProt Q07002); experiment: Inhibition of PCTK3 assessed as enzyme activity at 1 uM relative to untreated control; design: scale not given: the % may be the effect or the level left
[3] = biological target: Phosphatidylinositol 4,5-bisphosphate 3-kinase catalytic subunit gamma isoform (Homo sapiens) (UniProt P48736); experiment: Inhibition of PIK3CG assessed as enzyme activity at 1 uM relative to untreated control; design: scale not given: the % may be the effect or the level left
[4] = biological target: NUAK family SNF1-like kinase 1 (Homo sapiens) (UniProt O60285); experiment: Inhibition of ARK5 assessed as enzyme activity at 1 uM relative to untreated control; design: scale not given: the % may be the effect or the level left
[5] = biological target: Serine/threonine-protein kinase ULK3 (Homo sapiens) (UniProt Q6PHR2); experiment: Inhibition of ULK3 assessed as enzyme activity at 1 uM relative to untreated control; design: scale not given: the % may be the effect or the level left
[6] = biological target: Serine/threonine-protein kinase SIK1 (Homo sapiens) (UniProt P57059); experiment: Inhibition of SNF1LK assessed as enzyme activity at 1 uM relative to untreated control; design: scale not given: the % may be the effect or the level left
[7] = Volume of distribution at steady state in CD1 mouse; type: ADME, organism-based; conditions: in vivo, read-out: Vdss
[8] = biological target: Mitogen-activated protein kinase kinase kinase kinase 1 (Homo sapiens) (UniProt Q92918); experiment: Inhibition of MAP4K1 assessed as enzyme activity at 1 uM relative to untreated control; design: scale not given: the % may be the effect or the level left
Mus musculus [9] = experiment: Inhibition of ERK phosphorylation in human A375 SQ2 cells xenografted CD1 mouse at 2 mg/kg, po qd after 6 hrs; type: functional; conditions: CD1, A-375, 6 h
[10] = biological target: Mitogen-activated protein kinase 3 (Homo sapiens) (UniProt P27361); experiment: Inhibition of ERK1 assessed as enzyme activity at 1 uM relative to untreated control; design: scale not given: the % may be the effect or the level left
Mus musculus [11] = experiment: Inhibition of ERK phosphorylation in human A375 SQ2 cells xenografted CD1 mouse at 5 mg/kg, po qd after 6 hrs; type: functional; conditions: CD1, A375-SQ2, 6 h
[12] = biological target: Interleukin-1 receptor-associated kinase 3 (Homo sapiens) (UniProt Q9Y616); experiment: Inhibition of IRAK3 assessed as enzyme activity at 1 uM relative to untreated control; design: scale not given: the % may be the effect or the level left
[13] = biological target: Serine/threonine-protein kinase Nek2 (Homo sapiens) (UniProt P51955); experiment: Inhibition of NEK2 assessed as enzyme activity at 1 uM relative to untreated control; design: scale not given: the % may be the effect or the level left
[14] = biological target: Cyclin-dependent kinase 11B (Homo sapiens) (UniProt P21127); experiment: Inhibition of CDC2L1 assessed as enzyme activity at 1 uM relative to untreated control; design: scale not given: the % may be the effect or the level left
[15] = system: Proto-oncogene tyrosine-protein kinase receptor Ret (Homo sapiens), P07949 [V804M]; experiment: Inhibition of RET V804M mutant assessed as enzyme activity at 1 uM relative to untreated control; design: scale not given: the % may be the effect or the level left
[16] = biological target: Tyrosine-protein kinase Srms (Homo sapiens) (UniProt Q9H3Y6); experiment: Inhibition of SRMS assessed as enzyme activity at 1 uM relative to untreated control; design: scale not given: the % may be the effect or the level left
[17] = biological target: Cyclin-dependent kinase 2 (Homo sapiens) (UniProt P24941); experiment: Inhibition of CDK2 assessed as enzyme activity at 1 uM relative to untreated control; design: scale not given: the % may be the effect or the level left
[18] = biological target: Dual specificity mitogen-activated protein kinase kinase 2 (Homo sapiens) (UniProt P36507); experiment: Inhibition of MEK2 assessed as enzyme activity at 1 uM relative to untreated control; design: scale not given: the % may be the effect or the level left
[19] = biological target: Serine/threonine-protein kinase MRCK gamma (Homo sapiens) (UniProt Q6DT37); experiment: Inhibition of DMPK2 assessed as enzyme activity at 1 uM relative to untreated control; design: scale not given: the % may be the effect or the level left
[20] = system: Proto-oncogene tyrosine-protein kinase receptor Ret (Homo sapiens), P07949 [V804L]; experiment: Inhibition of RET V804L mutant assessed as enzyme activity at 1 uM relative to untreated control; design: scale not given: the % may be the effect or the level left
[21] = biological target: Serine/threonine-protein kinase Nek7 (Homo sapiens) (UniProt Q8TDX7); experiment: Inhibition of NEK7 assessed as enzyme activity at 1 uM relative to untreated control; design: scale not given: the % may be the effect or the level left
[22] = biological target: Phosphatidylinositol 5-phosphate 4-kinase type-2 beta (Homo sapiens) (UniProt P78356); experiment: Inhibition of PIP5K2B assessed as enzyme activity at 1 uM relative to untreated control; design: scale not given: the % may be the effect or the level left
[23] = biological target: Homeodomain-interacting protein kinase 1 (Homo sapiens) (UniProt Q86Z02); experiment: Inhibition of HIPK1 assessed as enzyme activity at 1 uM relative to untreated control; design: scale not given: the % may be the effect or the level left
[24] = biological target: Protein kinase C epsilon type (Homo sapiens) (UniProt Q02156); experiment: Inhibition of PRKCE assessed as enzyme activity at 1 uM relative to untreated control; design: scale not given: the % may be the effect or the level left
[25] = biological target: Phosphatidylinositol 4,5-bisphosphate 3-kinase catalytic subunit beta isoform (Homo sapiens) (UniProt P42338); experiment: Inhibition of PIK3CB assessed as enzyme activity at 1 uM relative to untreated control; design: scale not given: the % may be the effect or the level left
[26] = biological target: Fibroblast growth factor receptor 4 (Homo sapiens) (UniProt P22455); experiment: Inhibition of FGFR4 assessed as enzyme activity at 1 uM relative to untreated control; design: scale not given: the % may be the effect or the level left
[27] = biological target: Cyclin-dependent kinase 5 (Homo sapiens) (UniProt Q00535); experiment: Inhibition of CDK5 assessed as enzyme activity at 1 uM relative to untreated control; design: scale not given: the % may be the effect or the level left
[28] = biological target: Tyrosine-protein kinase ABL2 (Homo sapiens) (UniProt P42684); experiment: Inhibition of ABL2 assessed as enzyme activity at 1 uM relative to untreated control; design: scale not given: the % may be the effect or the level left
[29] = biological target: Insulin receptor-related protein (Homo sapiens) (UniProt P14616); experiment: Inhibition of INSRR assessed as enzyme activity at 1 uM relative to untreated control; design: scale not given: the % may be the effect or the level left
[30] = biological target: Serine/threonine-protein kinase 25 (Homo sapiens) (UniProt O00506); experiment: Inhibition of YSK1 assessed as enzyme activity at 1 uM relative to untreated control; design: scale not given: the % may be the effect or the level left
[31] = biological target: Tyrosine-protein kinase Yes (Homo sapiens) (UniProt P07947); experiment: Inhibition of YES assessed as enzyme activity at 1 uM relative to untreated control; design: scale not given: the % may be the effect or the level left
[32] = biological target: Tyrosine-protein kinase Fgr (Homo sapiens) (UniProt P09769); experiment: Inhibition of FGR assessed as enzyme activity at 1 uM relative to untreated control; design: scale not given: the % may be the effect or the level left
[33] = biological target: Protein-tyrosine kinase 6 (Homo sapiens) (UniProt Q13882); experiment: Inhibition of PTK6 assessed as enzyme activity at 1 uM relative to untreated control; design: scale not given: the % may be the effect or the level left
[34] = biological target: Serine/threonine-protein kinase PAK 3 (Homo sapiens) (UniProt O75914); experiment: Inhibition of PAK3 assessed as enzyme activity at 1 uM relative to untreated control; design: scale not given: the % may be the effect or the level left
[35] = biological target: Mitogen-activated protein kinase 13 (Homo sapiens) (UniProt O15264); experiment: Inhibition of p38delta assessed as enzyme activity at 1 uM relative to untreated control; design: scale not given: the % may be the effect or the level left
[36] = biological target: Phosphorylase b kinase gamma catalytic chain, liver/testis isoform (Homo sapiens) (UniProt P15735); experiment: Inhibition of PHKG2 assessed as enzyme activity at 1 uM relative to untreated control; design: scale not given: the % may be the effect or the level left
[37] = biological target: Tyrosine-protein kinase Tec (Homo sapiens) (UniProt P42680); experiment: Inhibition of TEC assessed as enzyme activity at 1 uM relative to untreated control; design: scale not given: the % may be the effect or the level left
[38] = biological target: Serine/threonine-protein kinase NLK (Homo sapiens) (UniProt Q9UBE8); experiment: Inhibition of NLK assessed as enzyme activity at 1 uM relative to untreated control; design: scale not given: the % may be the effect or the level left

Sequence of Tyrosine-protein kinase Fgr (Homo sapiens) (P09769 2-529 limits assumed): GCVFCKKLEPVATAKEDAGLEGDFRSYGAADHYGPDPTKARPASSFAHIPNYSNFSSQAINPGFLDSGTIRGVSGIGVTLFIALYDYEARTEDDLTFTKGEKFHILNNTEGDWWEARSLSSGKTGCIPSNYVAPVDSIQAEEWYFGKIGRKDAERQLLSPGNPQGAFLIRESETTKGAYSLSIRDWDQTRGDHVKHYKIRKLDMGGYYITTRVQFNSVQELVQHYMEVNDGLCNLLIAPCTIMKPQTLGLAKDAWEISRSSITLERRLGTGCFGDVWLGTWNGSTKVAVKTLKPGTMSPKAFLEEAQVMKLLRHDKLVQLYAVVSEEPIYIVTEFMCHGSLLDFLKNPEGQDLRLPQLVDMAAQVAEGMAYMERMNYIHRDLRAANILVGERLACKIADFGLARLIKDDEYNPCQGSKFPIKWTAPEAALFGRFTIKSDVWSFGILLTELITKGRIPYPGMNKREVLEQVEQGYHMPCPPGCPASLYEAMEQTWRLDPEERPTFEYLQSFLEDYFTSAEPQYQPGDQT
Sequence of Fibroblast growth factor receptor 4 (Homo sapiens) (P22455 22-802 limits assumed): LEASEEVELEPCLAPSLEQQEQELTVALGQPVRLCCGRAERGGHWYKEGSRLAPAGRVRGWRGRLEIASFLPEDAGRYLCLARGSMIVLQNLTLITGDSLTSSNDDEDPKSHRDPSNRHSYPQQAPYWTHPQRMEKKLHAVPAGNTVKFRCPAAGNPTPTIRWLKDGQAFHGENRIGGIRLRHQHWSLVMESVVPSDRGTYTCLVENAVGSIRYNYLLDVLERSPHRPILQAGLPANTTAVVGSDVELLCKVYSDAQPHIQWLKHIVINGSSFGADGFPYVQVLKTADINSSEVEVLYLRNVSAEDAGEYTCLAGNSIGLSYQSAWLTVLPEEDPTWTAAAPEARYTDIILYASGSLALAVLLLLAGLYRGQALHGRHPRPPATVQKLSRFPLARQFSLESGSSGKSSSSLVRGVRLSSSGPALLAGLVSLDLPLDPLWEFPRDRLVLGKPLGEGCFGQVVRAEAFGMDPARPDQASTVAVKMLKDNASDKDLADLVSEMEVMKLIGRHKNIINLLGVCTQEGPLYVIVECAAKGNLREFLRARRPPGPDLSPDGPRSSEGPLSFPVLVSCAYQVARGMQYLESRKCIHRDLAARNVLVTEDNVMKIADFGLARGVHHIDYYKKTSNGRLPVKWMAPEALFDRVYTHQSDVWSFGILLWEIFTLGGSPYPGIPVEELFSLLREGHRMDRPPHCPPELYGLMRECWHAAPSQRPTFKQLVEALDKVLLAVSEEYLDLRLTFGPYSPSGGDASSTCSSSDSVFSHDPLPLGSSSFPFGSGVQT
Sequence of Serine/threonine-protein kinase MRCK gamma (Homo sapiens) (Q6DT37 whole entry): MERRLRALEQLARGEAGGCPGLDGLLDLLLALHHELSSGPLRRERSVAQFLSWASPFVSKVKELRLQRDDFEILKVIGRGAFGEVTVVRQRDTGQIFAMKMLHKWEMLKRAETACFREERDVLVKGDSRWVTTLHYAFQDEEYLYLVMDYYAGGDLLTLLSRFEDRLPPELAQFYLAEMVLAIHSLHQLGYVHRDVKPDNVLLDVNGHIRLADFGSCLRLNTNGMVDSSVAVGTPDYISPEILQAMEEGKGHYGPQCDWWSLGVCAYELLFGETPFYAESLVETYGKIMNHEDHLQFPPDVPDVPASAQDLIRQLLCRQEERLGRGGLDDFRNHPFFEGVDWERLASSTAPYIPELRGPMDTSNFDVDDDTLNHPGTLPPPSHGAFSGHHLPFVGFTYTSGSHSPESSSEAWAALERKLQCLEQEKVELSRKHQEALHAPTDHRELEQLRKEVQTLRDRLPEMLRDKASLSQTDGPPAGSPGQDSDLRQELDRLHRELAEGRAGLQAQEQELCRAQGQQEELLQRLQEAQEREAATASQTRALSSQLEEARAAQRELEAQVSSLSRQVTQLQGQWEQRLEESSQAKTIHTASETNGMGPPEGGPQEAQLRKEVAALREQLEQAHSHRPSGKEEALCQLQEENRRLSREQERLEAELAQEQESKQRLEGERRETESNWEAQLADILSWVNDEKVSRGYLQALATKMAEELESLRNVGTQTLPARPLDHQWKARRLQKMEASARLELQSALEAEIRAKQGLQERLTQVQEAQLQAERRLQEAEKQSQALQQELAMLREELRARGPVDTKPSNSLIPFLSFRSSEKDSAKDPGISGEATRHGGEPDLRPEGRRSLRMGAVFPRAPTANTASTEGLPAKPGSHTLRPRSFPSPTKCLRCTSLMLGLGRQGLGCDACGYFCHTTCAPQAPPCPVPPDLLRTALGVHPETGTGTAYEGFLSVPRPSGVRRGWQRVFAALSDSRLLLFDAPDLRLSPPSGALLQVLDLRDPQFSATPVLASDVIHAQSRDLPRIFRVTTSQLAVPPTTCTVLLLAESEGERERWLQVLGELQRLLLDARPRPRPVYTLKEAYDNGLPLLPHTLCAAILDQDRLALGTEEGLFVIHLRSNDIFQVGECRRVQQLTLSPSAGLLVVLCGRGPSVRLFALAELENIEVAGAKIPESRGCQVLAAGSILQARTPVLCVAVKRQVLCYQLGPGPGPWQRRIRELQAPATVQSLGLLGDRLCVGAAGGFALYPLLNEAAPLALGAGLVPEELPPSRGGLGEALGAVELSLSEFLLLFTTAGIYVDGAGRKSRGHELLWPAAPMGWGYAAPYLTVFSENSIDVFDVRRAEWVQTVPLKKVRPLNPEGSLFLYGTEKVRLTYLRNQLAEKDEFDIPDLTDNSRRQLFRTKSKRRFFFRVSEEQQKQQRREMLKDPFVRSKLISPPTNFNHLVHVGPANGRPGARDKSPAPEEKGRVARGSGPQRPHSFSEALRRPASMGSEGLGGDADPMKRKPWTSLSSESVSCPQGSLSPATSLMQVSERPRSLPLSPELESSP
Sequence of Serine/threonine-protein kinase 25 (Homo sapiens) (O00506 whole entry, looked up): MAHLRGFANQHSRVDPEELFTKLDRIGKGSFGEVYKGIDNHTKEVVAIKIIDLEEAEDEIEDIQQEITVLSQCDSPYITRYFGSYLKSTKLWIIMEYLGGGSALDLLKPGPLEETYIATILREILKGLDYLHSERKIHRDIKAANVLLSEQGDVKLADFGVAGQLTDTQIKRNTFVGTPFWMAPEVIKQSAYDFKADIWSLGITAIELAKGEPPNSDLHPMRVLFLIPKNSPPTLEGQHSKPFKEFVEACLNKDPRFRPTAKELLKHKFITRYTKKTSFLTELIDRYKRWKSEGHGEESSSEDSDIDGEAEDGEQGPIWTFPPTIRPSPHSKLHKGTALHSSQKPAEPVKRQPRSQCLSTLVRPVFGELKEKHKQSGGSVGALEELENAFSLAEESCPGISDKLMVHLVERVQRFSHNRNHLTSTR
Sequence of Serine/threonine-protein kinase PAK 3 (Homo sapiens) (O75914 whole entry, looked up): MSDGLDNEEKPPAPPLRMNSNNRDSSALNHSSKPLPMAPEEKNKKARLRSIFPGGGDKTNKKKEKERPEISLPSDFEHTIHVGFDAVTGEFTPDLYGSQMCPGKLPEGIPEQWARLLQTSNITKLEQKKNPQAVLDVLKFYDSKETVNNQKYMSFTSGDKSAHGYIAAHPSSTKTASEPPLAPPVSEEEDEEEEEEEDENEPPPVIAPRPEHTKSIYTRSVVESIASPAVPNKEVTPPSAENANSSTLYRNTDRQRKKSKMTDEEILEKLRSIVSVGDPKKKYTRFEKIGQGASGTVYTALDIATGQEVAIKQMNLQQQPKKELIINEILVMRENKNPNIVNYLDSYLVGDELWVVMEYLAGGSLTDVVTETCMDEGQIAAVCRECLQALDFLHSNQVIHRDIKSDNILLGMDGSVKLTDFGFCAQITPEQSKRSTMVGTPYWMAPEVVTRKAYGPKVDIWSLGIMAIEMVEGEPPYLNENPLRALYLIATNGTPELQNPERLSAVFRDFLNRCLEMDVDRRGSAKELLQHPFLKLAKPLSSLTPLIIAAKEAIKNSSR
Sequence of Serine/threonine-protein kinase SIK1 (Homo sapiens) (P57059 whole entry): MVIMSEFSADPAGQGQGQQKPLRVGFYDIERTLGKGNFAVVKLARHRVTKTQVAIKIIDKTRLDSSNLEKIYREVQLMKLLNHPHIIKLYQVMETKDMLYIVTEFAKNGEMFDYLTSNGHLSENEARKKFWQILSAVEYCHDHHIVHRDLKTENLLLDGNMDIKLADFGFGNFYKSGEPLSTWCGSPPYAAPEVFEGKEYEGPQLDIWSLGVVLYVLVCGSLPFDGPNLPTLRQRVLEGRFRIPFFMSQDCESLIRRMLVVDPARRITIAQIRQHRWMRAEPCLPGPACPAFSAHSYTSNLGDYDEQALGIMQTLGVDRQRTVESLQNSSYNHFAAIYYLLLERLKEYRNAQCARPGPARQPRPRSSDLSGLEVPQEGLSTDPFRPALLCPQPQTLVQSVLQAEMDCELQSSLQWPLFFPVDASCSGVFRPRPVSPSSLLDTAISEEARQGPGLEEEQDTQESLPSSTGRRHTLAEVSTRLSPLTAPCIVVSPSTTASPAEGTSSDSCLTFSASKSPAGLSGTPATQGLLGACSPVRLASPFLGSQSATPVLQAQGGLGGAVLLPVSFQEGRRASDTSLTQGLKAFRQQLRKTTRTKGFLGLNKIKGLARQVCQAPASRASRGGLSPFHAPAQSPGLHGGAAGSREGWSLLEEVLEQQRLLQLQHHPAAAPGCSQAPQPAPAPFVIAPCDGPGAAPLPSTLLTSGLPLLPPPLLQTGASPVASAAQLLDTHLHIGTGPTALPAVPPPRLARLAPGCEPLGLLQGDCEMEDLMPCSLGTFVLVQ
Sequence of Phosphorylase b kinase gamma catalytic chain, liver/testis isoform (Homo sapiens) (P15735 whole entry, canonical isoform): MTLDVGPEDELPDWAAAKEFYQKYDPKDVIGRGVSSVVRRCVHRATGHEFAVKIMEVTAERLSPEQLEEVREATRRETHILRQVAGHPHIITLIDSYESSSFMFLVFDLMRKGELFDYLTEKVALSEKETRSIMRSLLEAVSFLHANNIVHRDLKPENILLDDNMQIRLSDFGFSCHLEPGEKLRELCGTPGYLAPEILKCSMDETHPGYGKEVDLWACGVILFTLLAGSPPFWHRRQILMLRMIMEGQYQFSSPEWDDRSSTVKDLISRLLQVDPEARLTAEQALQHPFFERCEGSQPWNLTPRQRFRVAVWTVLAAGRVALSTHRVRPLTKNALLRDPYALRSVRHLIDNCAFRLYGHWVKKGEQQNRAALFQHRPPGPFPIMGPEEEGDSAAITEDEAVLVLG

## Cc1ccc2c(Nc3ccc(Cl)cc3)nccc2c1Nc1ncccc1-c1ncnc2[nH]cnc12.Cl.Cl.Cl
[1]
  Activity: 100%
[2]
  Activity: 95%
[3]
  Activity: 100%
[4]
  Activity: 100%
[5]
  Activity: 100%
[6]
  Activity: 75%
[7]
  Vd: 1.1 L/kg
[8]
  Activity: 100%
Mus musculus [9]
  inhibition in vivo at 2 mg/kg: 69%
[10]
  Activity: 100%
Mus musculus [11]
  inhibition in vivo at 5 mg/kg: 77%
[12]
  Activity: 81%
[13]
  Activity: 90%
[14]
  Activity: 42%
[15]
  Activity: 96%
[16]
  Activity: 100%
[17]
  Activity: 100%
[18]
  Activity: 99%
[19]
  Activity: 99%
[20]
  Activity: 100%
[21]
  Activity: 88%
[22]
  Activity: 57%
[23]
  Activity: 99%
[24]
  Activity: 100%
[25]
  Activity: 100%
[26]
  Activity: 100%
[27]
  Activity: 100%
[28]
  Activity: 42%
[29]
  Activity: 78%
[30]
  Activity: 100%
[31]
  Activity: 52%
[32]
  Activity: 100%
[33]
  Activity: 13%
[34]
  Activity: 87%
[35]
  Activity: 100%
[36]
  Activity: 100%
[37]
  Activity: 100%
[38]
  Activity: 83%
